Columns and labels:
MB49 cells [1] = assay: Nuclear and cytoplasmic accumulation of plasmid DNA by PCR; format: cell-based, murine; settings: nuclear and cytoplasmic extracts
Procedure: Nuclear and cytoplasmic fractionation of transfected cells was carried out using gentle lysis with TNE buffer (10 mM Tris, pH (pH8), 1 mM EDTA, 100 mM NaCl, 1% Igepecal) and left on ice for 10 min followed by centrifugation at 7K for 5 min at 4° C. in a microfuge. The supernatant so produced was labelled the cytoplasmic extract and was transferred to a fresh tube. The nuclear extract were prepared by treatment with a proteinase K digestion (100 mM, NaCl, 10 Mm Tris, pH8, 0.5% SDS 25 mM EDTA and 0.1 mg/ml proteinase K) of the pelleted material overnight at 50° C. Nuclear DNA was extracted with phenol/chloroform twice followed by ethanol precipitation. PCR analysis was carried out as described above.
To determine the localization of DNA following transfection with DOTAP and DMBC, nuclear and cytoplasmic extracts were prepared from transfected cells. The presence of DNA in these extracts was determined using PCR. […] The GADPH gene was used to confirm the presence of nuclear DNA in nuclear extracts and the lack of contamination of cytoplasmic fractions with nuclear DNA.

MB49 cells [2] = assay: Proliferation assay ([14C]-thymidine incorporation), toxicity of transfection agents; format: cell-based, murine
Procedure: Proliferation was assayed by measuring [^14C]-thymidine incorporation. 1×10^4 cells were plated per well in a 96 well flat-bottomed tissue culture plate (Nunc, Rosklide, Denmark) and transfected at optimal conditions as described above for the appropriate length of time (2 h and 24 h exposure), washed and incubated with fresh RPMI 1640 at 37° C. After 32 h, supernatants were removed, and cells were rinsed with 1×PBS. Triplicate wells were incubated with […], [^14]-thymidine (specific activity 56.5 mCi/mmol; Du Pont, Wilmington, Del., USA) for 16 h. The samples were harvested as described in Zhang, Y. et al. (1997) Int. J. Cancer 71:851-7. [^14C]-thymidine incorporation was expressed as a percentage of the incorporation in control cells, which consisted of untransfected cells. The non-parametric Mann-Whitney U test was used to calculate statistical significance. Probability values of p<0.05 were considered statistically significant.
A cell proliferation assay was used to gauge the toxicity of the transfection agents. Relative toxicity was measured by comparing proliferation in transfected and untransfected cells, 48 h after plating. Cells were exposed to the transfection agents for 2 h and 24 h.

[3] = system: urothelial cells of the bladder; assay: Transfection of murine bladders by intravesical instillation
Procedure: 5-7 week old-female C57BL6 mice were anaesthetized; their bladders were catheterized with 24 G i.v. catheter and flushed with 1×PBS. The DMBC and DNA complex were mixed for 15 min as described above. The final mix was made up to a final volume of 465 μl with 1×PBS for easy instillation and introduced intravesically. Transfection exposure times of 15 min, 30 min, 1 h or 2 h were evaluated. At different time points the bladders were flushed with 1×PBS to remove DNA/DMBC complex. The mice were sacrificed 48 h after treatment. Experiments were done in duplicates.
Cryostat sections of 6 μM in thickness were fixed in 1.25% glutaraldehyde for 10 min at 4° C. followed by incubation with X-gal for 4 h at 37° C. and were counterstained with haematoxylin.

MB49 cells [4] = assay: In vitro transfection efficiency of pCMVlacZ, X-gal staining; format: cell-based, murine
human tumor xenografts = settings: used by itself; cited from earlier work

Molecule: 1,2-diacyl-3-trimethylammonium propane [DOTAP]
- localization of LacZ plasmid DNA (MB49 cells [1]): only found to be in the cytoplasm
- 14C-thymidine incorporation, transfected vs untransfected cells (MB49 cells [2]; 2 h exposure): no difference
- cell proliferative capacity vs untransfected cells (MB49 cells [2]; 24 h exposure): reduction in cell proliferative capacity but this was not statistically significant
- structure of bladder cells facing the lumen by transmission electron microscopy ([3]; 2 h transfection exposure, vs untransfected control bladder): did not result in any discernible structural difference
- transfection of bladder epithelial cells facing the lumen ([3]; intravesical instillation, mice): did not result in efficient transfection

Molecule: [Ca+2].[Cl-].[Cl-] [Calcium chloride]
- ability to transfect MB49 cells (MB49 cells [4]; MB49 cells, pCMVlacZ, 2 h): Neither calcium chloride (0-40 μg) nor DEAE-Dextran (0-2 μg) nor naked DNA could transfect MB49 cells
- Transfection efficiency (MB49 cells [4]; MB49 cells, pCMVlacZ, 2 h, percentage of cells stained blue with X-gal): 0%

Molecule: methyl-β-cyclodextrin
- transfection with cyclodextrin lacking cholesterol (MB49 cells [4]; methyl-β-cyclodextrin by itself in combination with DOTAP and DNA, murine bladder epithelial cells): no transfection of murine bladder epithelial cells
- anti-tumor effect (human tumor xenografts): had an anti-tumor effect
